Results: US11780845B2 (Relay Therapeutics, Inc., priority 2019, dated 2023)

Each molecule was assayed against FGFR2 (Homo sapiens (Human), UniProt P21802) (assay: Biochemical FGFR2 Caliper assay). Settings: not given.
Sequence of FGFR2 (P21802 22-821): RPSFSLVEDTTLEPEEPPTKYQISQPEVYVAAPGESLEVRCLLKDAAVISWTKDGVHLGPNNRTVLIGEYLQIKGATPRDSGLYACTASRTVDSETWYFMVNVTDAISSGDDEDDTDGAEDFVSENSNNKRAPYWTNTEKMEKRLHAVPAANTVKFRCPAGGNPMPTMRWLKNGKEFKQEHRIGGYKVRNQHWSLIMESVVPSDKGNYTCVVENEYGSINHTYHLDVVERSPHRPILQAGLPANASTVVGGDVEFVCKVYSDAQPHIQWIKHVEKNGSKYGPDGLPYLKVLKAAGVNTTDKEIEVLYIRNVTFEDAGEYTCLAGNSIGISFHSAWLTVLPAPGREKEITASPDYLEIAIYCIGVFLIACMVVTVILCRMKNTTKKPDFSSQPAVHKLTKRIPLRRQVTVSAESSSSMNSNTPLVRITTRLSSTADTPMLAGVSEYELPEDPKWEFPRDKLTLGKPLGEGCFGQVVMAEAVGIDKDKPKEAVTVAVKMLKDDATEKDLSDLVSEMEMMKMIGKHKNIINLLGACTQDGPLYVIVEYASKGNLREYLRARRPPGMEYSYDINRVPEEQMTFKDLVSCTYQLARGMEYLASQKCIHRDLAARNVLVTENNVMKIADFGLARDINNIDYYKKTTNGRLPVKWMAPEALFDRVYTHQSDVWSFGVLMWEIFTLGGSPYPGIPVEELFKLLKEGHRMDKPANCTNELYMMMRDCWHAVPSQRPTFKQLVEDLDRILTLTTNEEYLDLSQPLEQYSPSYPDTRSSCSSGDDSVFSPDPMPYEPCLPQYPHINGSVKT

SMILES | IC50
C=C(C)C(=O)Nc1ccc(-c2c(-c3ccc4c(c3)CO[C@@H]4c3cccc(C)n3)c3c(N)ncnc3n2C)cc1 (single isomer, unassigned) [Example 894] | 250 to 1000 nM
C=C(C)C(=O)Nc1ccc(-c2c(-c3ccc(-c4ccn(C)n4)nc3)c3c(N)ncnc3n2C)cc1 [Example 1124] | 1000 to 100000 nM
C#Cc1cnc(-c2c(-c3ccc(Oc4nccc(C)n4)cc3)c3c(N)ncnc3n2C)cn1 [Example 1181] | < 100 nM
C=CC(=O)N1CC(c2c(-c3ccc(Oc4cccc(C)n4)cc3)c3c(N)ncnc3n2C)C[C@H]1C (some centres unmarked) [Example 847] | 250 to 1000 nM
C#C[C@@H]1CCCN1C(=O)[C@H]1CC=C(c2c(-c3ccc(NC(=O)C(=C)C)cc3)n(C)c3ncnc(N)c23)CC1 (single isomer, unassigned) [Example 949] | 100 to 250 nM
C=CC(=O)N1CCN(c2cccc(-c3c(-c4ccc(Oc5cccc(C)n5)cc4)c4c(N)ncnc4n3C)c2)CC1 [Example 1004] | < 100 nM
C=CC(=O)Nc1ccc(-c2c(-c3ccc(Oc4nccc(C)n4)c(F)c3)c3c(C)ncnc3n2C)c(C)c1 [Example 1105] | < 100 nM
C=CC(=O)Nc1ccc(-c2c(C3=CC[C@H](C(=O)N4CCCC4)CC3)c3c(C)ncnc3n2C)cc1 (single isomer, unassigned) [Example 1107] | < 100 nM
Cc1ccnc(Oc2ccc(-c3c(-c4ccc(-c5cnc(C#N)s5)cc4)n(C)c4ncnc(N)c34)cc2)n1 [Example 959] | 250 to 1000 nM
C=CC(=O)N[C@@H]1CCN(c2cccc(-c3c(-c4ccc(Oc5cccc(C)n5)cc4)c4c(N)ncnc4n3C)c2)C1 (single isomer, unassigned) [Example 1032] | 250 to 1000 nM
C=CC(=O)NCc1cccc(-c2c(-c3ccc(Oc4cccc(C)n4)cc3)c3c(N)ncnc3n2C)c1 [Example 1005] | 250 to 1000 nM
C#C[C@H]1CCCN1C(=O)[C@@H]1CC=C(c2c(-c3ccc(NC(=O)C(=C)C)cc3)n(C)c3ncnc(N)c23)CC1 (single isomer, unassigned) [Example 953] | < 100 nM
C=CC(=O)Nc1ccc(-c2[nH]c3ncnc(N)c3c2-c2ccc(Oc3ccn(C)n3)cc2)cc1 [Example 822] | 250 to 1000 nM
CC#Cc1ncc(-c2c(-c3ccc(Oc4nccc(C)n4)cc3)c3c(N)ncnc3n2C)c(C)n1 [Example 1162] | < 100 nM
C=CC(=O)N1CCC(c2cn3ncnc(N)c3c2-c2ccc(Oc3cccc(C)n3)cc2)C1 (centres unmarked) [Example 828] | 1000 to 100000 nM
C#Cc1cc(C)c(-c2c(-c3ccc(Oc4nccc(C)n4)c(F)c3)c3c(N)ncnc3n2C)cn1 [Example 1119] | 1000 to 100000 nM
C=C(C)C(=O)Nc1ccc(-c2c(C3=CC[C@H](C(=O)N4CCCC45CCC5)CC3)c3c(N)ncnc3n2C)cc1 [Example 999] | < 100 nM

Continued, values first:

IC50 | SMILES
1000 to 100000 nM | C=C(C)C(=O)Nc1ccc(-c2c(-c3ccc4c(c3)NC(=O)C4(C)C)c3c(N)ncnc3n2C)cc1 [Example 1283]
250 to 1000 nM | C#Cc1cc(C)c(-c2c(C3=CC[C@H](C(=O)N4CCC[C@@H]4C)CC3)c3c(N)ncnc3n2C)cn1 [Example 1257]
< 100 nM | C#Cc1cc(C)c(-c2c(C3=CC[C@]4(CC3)Cc3ccc(C)nc3C4=O)c3c(N)ncnc3n2C)cn1 [Example 1398]
1000 to 100000 nM | C=C(C)C(=O)Nc1ccc(-c2c(C3=CC[C@@]4(CC3)Cc3ccc(C)nc3C4=O)c3c(N)ncnc3n2C)cc1 (single isomer, unassigned) [Example 1366]
250 to 1000 nM | C=C(C)C(=O)Nc1ccc(-c2c(-c3cnn(C4CCCC4)c3)c3c(N)ncnc3n2C)cc1 [Example 1275]
< 100 nM | C#Cc1ccc(-c2c(-c3ccc(Oc4nccc(C)n4)c(F)c3)c3c(N)ncnc3n2C)c(CC)n1 [Example 1243]
< 100 nM | C#Cc1ncc(-c2c(-c3ccc(C(=O)N4CCC[C@H]4C#C)cc3)c3c(N)ncnc3n2C)c(C)c1F (single isomer, unassigned) [Example 1331]
< 100 nM | C#Cc1cc(OC)c(-c2c(C3=CC[C@H](C(=O)N4CCC[C@H]4C#N)CC3)c3c(C)ncnc3n2C)cn1 [Example 1468]
< 100 nM | C#Cc1cc(C)c(-c2c(C3=CC[C@@H](C(=O)N4CCCC4=O)CC3)c3c(N)ncnc3n2C)cn1 (single isomer, unassigned) [Example 1241]
100 to 250 nM | C=C(C)C(=O)Nc1ccc(-c2c(C3=CC[C@]4(CC3)Cc3ccc(OC)nc3C4=O)c3c(N)ncnc3n2C)cc1 [Example 1337]
< 100 nM | C#Cc1ncc(-c2c(-c3ccc(C(=O)N4CCC[C@@H]4C#C)cc3)c3c(N)ncnc3n2C)c(C)n1 [Example 1182]

The molecules below were run on SNU-16 (assay: Cell SNU-16 assay). Settings: Homo sapiens, SNU-16, SNU-16 cells.
Type: cell-based

SMILES | IC50
C=C(C)C(=O)Nc1ccc(-c2c(-c3ccc4c(c3)CO[C@@H]4c3cccc(C)n3)c3c(N)ncnc3n2C)cc1 (single isomer, unassigned) [Example 894] | 250 to 1000 nM
C=C(C)C(=O)Nc1ccc(-c2c(-c3ccc(-c4ccn(C)n4)nc3)c3c(N)ncnc3n2C)cc1 [Example 1124] | 250 to 1000 nM
C#Cc1cnc(-c2c(-c3ccc(Oc4nccc(C)n4)cc3)c3c(N)ncnc3n2C)cn1 [Example 1181] | ≤ 100 nM
C=CC(=O)N1CC(c2c(-c3ccc(Oc4cccc(C)n4)cc3)c3c(N)ncnc3n2C)C[C@H]1C (some centres unmarked) [Example 847] | 250 to 1000 nM
C#C[C@@H]1CCCN1C(=O)[C@H]1CC=C(c2c(-c3ccc(NC(=O)C(=C)C)cc3)n(C)c3ncnc(N)c23)CC1 (single isomer, unassigned) [Example 949] | 1000 to 100000 nM
C=CC(=O)N1CCN(c2cccc(-c3c(-c4ccc(Oc5cccc(C)n5)cc4)c4c(N)ncnc4n3C)c2)CC1 [Example 1004] | ≤ 100 nM
C=CC(=O)Nc1ccc(-c2c(-c3ccc(Oc4nccc(C)n4)c(F)c3)c3c(C)ncnc3n2C)c(C)c1 [Example 1105] | ≤ 100 nM
C=CC(=O)Nc1ccc(-c2c(C3=CC[C@H](C(=O)N4CCCC4)CC3)c3c(C)ncnc3n2C)cc1 (single isomer, unassigned) [Example 1107] | ≤ 100 nM
Cc1ccnc(Oc2ccc(-c3c(-c4ccc(-c5cnc(C#N)s5)cc4)n(C)c4ncnc(N)c34)cc2)n1 [Example 959] | ≤ 100 nM
C=CC(=O)N[C@@H]1CCN(c2cccc(-c3c(-c4ccc(Oc5cccc(C)n5)cc4)c4c(N)ncnc4n3C)c2)C1 (single isomer, unassigned) [Example 1032] | ≤ 100 nM
C=CC(=O)NCc1cccc(-c2c(-c3ccc(Oc4cccc(C)n4)cc3)c3c(N)ncnc3n2C)c1 [Example 1005] | 100 to 250 nM
C#C[C@H]1CCCN1C(=O)[C@@H]1CC=C(c2c(-c3ccc(NC(=O)C(=C)C)cc3)n(C)c3ncnc(N)c23)CC1 (single isomer, unassigned) [Example 953] | 1000 to 100000 nM
C=CC(=O)Nc1ccc(-c2[nH]c3ncnc(N)c3c2-c2ccc(Oc3ccn(C)n3)cc2)cc1 [Example 822] | 250 to 1000 nM
CC#Cc1ncc(-c2c(-c3ccc(Oc4nccc(C)n4)cc3)c3c(N)ncnc3n2C)c(C)n1 [Example 1162] | ≤ 100 nM
C=CC(=O)N1CCC(c2cn3ncnc(N)c3c2-c2ccc(Oc3cccc(C)n3)cc2)C1 (centres unmarked) [Example 828] | 250 to 1000 nM
C=C(C)C(=O)Nc1ccc(-c2c(C3=CC[C@H](C(=O)N4CCCC45CCC5)CC3)c3c(N)ncnc3n2C)cc1 [Example 999] | ≤ 100 nM

Now from value to molecule:

IC50 | SMILES
1000 to 100000 nM | C=C(C)C(=O)Nc1ccc(-c2c(-c3ccc4c(c3)NC(=O)C4(C)C)c3c(N)ncnc3n2C)cc1 [Example 1283]
250 to 1000 nM | C#Cc1cc(C)c(-c2c(C3=CC[C@H](C(=O)N4CCC[C@@H]4C)CC3)c3c(N)ncnc3n2C)cn1 [Example 1257]
≤ 100 nM | C#Cc1cc(C)c(-c2c(C3=CC[C@]4(CC3)Cc3ccc(C)nc3C4=O)c3c(N)ncnc3n2C)cn1 [Example 1398]
1000 to 100000 nM | C=C(C)C(=O)Nc1ccc(-c2c(C3=CC[C@@]4(CC3)Cc3ccc(C)nc3C4=O)c3c(N)ncnc3n2C)cc1 (single isomer, unassigned) [Example 1366]
250 to 1000 nM | C=C(C)C(=O)Nc1ccc(-c2c(-c3cnn(C4CCCC4)c3)c3c(N)ncnc3n2C)cc1 [Example 1275]
≤ 100 nM | C#Cc1ccc(-c2c(-c3ccc(Oc4nccc(C)n4)c(F)c3)c3c(N)ncnc3n2C)c(CC)n1 [Example 1243]
≤ 100 nM | C#Cc1ncc(-c2c(-c3ccc(C(=O)N4CCC[C@H]4C#C)cc3)c3c(N)ncnc3n2C)c(C)c1F (single isomer, unassigned) [Example 1331]
≤ 100 nM | C#Cc1cc(OC)c(-c2c(C3=CC[C@H](C(=O)N4CCC[C@H]4C#N)CC3)c3c(C)ncnc3n2C)cn1 [Example 1468]
≤ 100 nM | C#Cc1cc(C)c(-c2c(C3=CC[C@@H](C(=O)N4CCCC4=O)CC3)c3c(N)ncnc3n2C)cn1 (single isomer, unassigned) [Example 1241]
≤ 100 nM | C=C(C)C(=O)Nc1ccc(-c2c(C3=CC[C@]4(CC3)Cc3ccc(OC)nc3C4=O)c3c(N)ncnc3n2C)cc1 [Example 1337]
≤ 100 nM | C#Cc1ncc(-c2c(-c3ccc(C(=O)N4CCC[C@@H]4C#C)cc3)c3c(N)ncnc3n2C)c(C)n1 [Example 1182]

Same assay, conditions: SNU-16 cells

IC50 | SMILES
250 to 1000 nM | C#Cc1cc(C)c(-c2c(-c3ccc(Oc4nccc(C)n4)c(F)c3)c3c(N)ncnc3n2C)cn1 [Example 1119]
